Structures can show the parent of a compound that is named as a salt.
Test system: human epidermal keratinocytes
Experiment: Epidermal keratinocyte proliferation in dermal papilla cell and epidermal keratinocyte double-layer culture system
Type: cell-based
Details: 0.2 μg/ml, 2 μg/ml, 20 μg/ml, 200 μg/ml
Procedure: 500 μl of human epidermal keratinocytes (30,000 cells/ml) were added to each well of MULTIWELL 24well, followed by the addition of 1.0 μm of cell culture inserts for culture for 1 day. 300 μl of dermal papilla cells (20,000 cells/ml) had been added in the 1.0 μm of cell culture inserts. each 1 μl/well of the Radix et Rhizoma Ginseng extracts 1-7, the positive control (minoxidil sulfate) and the blank control (DMSO) was then added for continued culture for 3 days. After removal of the 1.0 μm of cell culture inserts, 50 μl/well of Cell Counting Kit-8 (Dojindo Laboratories) was added for continued culture for 2 hours, and the cell number was determined using a microplate reader (450 nm, Mix0).

For `Nc1cc(N2CCCCC2)nc(N)[n+]1OS(=O)(=O)[O-]` [Minoxidil sulfate, minoxidil sulfate], the “epidermal keratinocyte proliferation in double-layer culture system” value was “no effect in promoting keratinocyte proliferation”.

Reference: patent US12409126B2, “Ginsenoside-containing composition, daily-use chemical and use thereof” (InCipirit Tech (Guangzhou) Co., Ltd., priority 2023, dated 2025)
